Results taken from patent US20230287021A1, “COMPOUNDS, COMPOSITIONS AND METHODS FOR STABILIZING TRANSTHYRETIN AND INHIBITING TRANSTHYRETIN MISFOLDING” (Protego Biopharma, Inc., priority 2020, published 2023).
Counter-ions that a name gives are not always drawn.

Columns and labels:
[1] = In vitro rat plasma stability assay, formation of tafamidis; assay type: in vitro ADME; conditions: 37° C., 2 µM test compound
Description: A stability assay in plasma (rat or human) was used to evaluate the ability of a compound provided herein to convert to an active TTR stabilizer. The test compound was added to plasma and incubated at 37° C. in a water bath at a concentration of 2 µM. At each time point (0, 10, 30, 60 and 120 min or 0, 60, 120, 180 and 240 min), stop solution (tolbutamide plus labetalol) was added to precipitate protein and mixed thoroughly. After centrifugation, an aliquot of supernatant was analyzed by LC-MS/MS. The percentage of formation of active agent was calculated at each time point.

[2] = In vitro rat liver S9 stability assay, formation of tafamidis; assay type: in vitro ADME; conditions: rat liver S9, 37° C., 1 µM test compound
Description: The test compound was added to liver S9 and incubated at 37° C. in a water bath at a concentration of 1 µM. At each time point (0, 5, 10, 20, 30 and 60 min), stop solution (tolbutamide plus labetalol) was added to precipitate protein and mixed thoroughly. After centrifugation, an aliquot of supernatant was analyzed by LC-MS/MS. The percentage of formation of active agent was calculated at each time point.

| Formation of tafamidis at 120 min [1] | Formation of tafamidis at 60 min [2] | SMILES |
| --- | --- | --- |
| A (A is <25%) |  | O=C(NCCO)c1ccc2nc(-c3cc(Cl)cc(Cl)c3)oc2c1 [Compound 64, 2-(3,5-dichlorophenyl)-N-(2-hydroxyethyl)benzo[d]oxazole-6-carboxamide] |
|  | D (D is ≥75%) | O=C(OC1CCCn2ccnc21)c1ccc2nc(-c3cc(Cl)cc(Cl)c3)oc2c1 (stereo not shown) [Compound 155, 5,6,7,8-tetrahydroimidazo[1,2-a]pyridin-8-yl 2-(3,5-dichlorophenyl)benzo[d]oxazole-6-carboxylate] |
|  | B (B is ≥25 to <50%) | O=CN1CCC(OC(=O)c2ccc3nc(-c4cc(Cl)cc(Cl)c4)oc3c2)C1 (stereo not shown) [Compound 150] |
|  | C (C is ≥50 to <75%) | CN(C)[C@H]1C[C@@H]1OC(=O)c1ccc2nc(-c3cc(Cl)cc(Cl)c3)oc2c1 (relative stereo) [Compound 154, trans 2-(dimethylamino)cyclopropyl 2-(3,5-dichlorophenyl)benzo-[d]oxazole-6-carboxylate hydrochloride] |
|  | C (C is ≥50 to <75%) | CN1CC(OC(=O)c2ccc3nc(-c4cc(Cl)cc(Cl)c4)oc3c2)CC(F)(F)C1 (stereo not shown) [Compound 171, 5,5-difluoro-1-methylpiperidin-3-yl 2-(3,5-dichlorophenyl)benzo[d]oxazole-6-carboxylate] |
|  | B (B is ≥25 to <50%) | CN(C)[C@@H]1CC[C@H]1OC(=O)c1ccc2nc(-c3cc(Cl)cc(Cl)c3)oc2c1 [Compound 120] |
|  | A (A is <25%) | CC(=O)N1CCC(OC(=O)c2ccc3nc(-c4cc(Cl)cc(Cl)c4)oc3c2)C1 (stereo not shown) [Compound 138] |
|  | B (B is ≥25 to <50%) | CCN1CCCC1COC(=O)c1ccc2nc(-c3cc(Cl)cc(Cl)c3)oc2c1 (stereo not shown) [Compound 172] |
|  | A (A is <25%) | CC[N+]1([O-])CCC(OC(=O)c2ccc3nc(-c4cc(Cl)cc(Cl)c4)oc3c2)C1 (stereo not shown) [Compound 142] |
|  | C (C is ≥50 to <75%) | CC(OC(=O)c1ccc2nc(-c3cc(Cl)cc(Cl)c3)oc2c1)c1ncccn1 (stereo not shown) [Compound 146] |
|  | D (D is ≥75%) | Cc1ncc2n1CCC2OC(=O)c1ccc2nc(-c3cc(Cl)cc(Cl)c3)oc2c1 (stereo not shown) [Compound 159, 3-methyl-6,7-dihydro-5H-pyrrolo[1,2-c]imidazol-7-yl 2-(3,5-dichlorophenyl)benzo[d]oxazole-6-carboxylate hydrochloride] |
|  | D (D is ≥75%) | O=C(OCc1cccnn1)c1ccc2nc(-c3cc(Cl)cc(Cl)c3)oc2c1 [Compound 130] |
|  | D (D is ≥75%) | O=C(OCCCc1ccncc1)c1ccc2nc(-c3cc(Cl)cc(Cl)c3)oc2c1 [Compound 113] |
|  | B (B is ≥25 to <50%) | O=C(OC1CCN(CCF)C1)c1ccc2nc(-c3cc(Cl)cc(Cl)c3)oc2c1 (stereo not shown) [Compound 147] |
|  | B (B is ≥25 to <50%) | CN1CC(OC(=O)c2ccc3nc(-c4cc(Cl)cc(Cl)c4)oc3c2)CCC1=O (stereo not shown) [Compound 162] |
|  | A (A is <25%) | CN1CCC(CCCOC(=O)c2ccc3nc(-c4cc(Cl)cc(Cl)c4)oc3c2)C1 (stereo not shown) [Compound 137] |
|  | D (D is ≥75%) | O=C(OCCCc1ccccn1)c1ccc2nc(-c3cc(Cl)cc(Cl)c3)oc2c1 [Compound 106] |
|  | D (D is ≥75%) | O=C(OC1CCN(C2CC2)C1)c1ccc2nc(-c3cc(Cl)cc(Cl)c3)oc2c1 (stereo not shown) [Compound 115] |
|  | D (D is ≥75%) | O=C(OCc1cnccn1)c1ccc2nc(-c3cc(Cl)cc(Cl)c3)oc2c1 [Compound 132] |
|  | B (B is ≥25 to <50%) | CC(Cc1cccnc1)OC(=O)c1ccc2nc(-c3cc(Cl)cc(Cl)c3)oc2c1 (stereo not shown) [Compound 168, 1-(pyridin-3-yl)propan-2-yl 2-(3,5-dichlorophenyl)benzo[d]oxazole-6-carboxylate] |
|  | C (C is ≥50 to <75%) | O=C(OCc1ccncc1)c1ccc2nc(-c3cc(Cl)cc(Cl)c3)oc2c1 [Compound 109] |
|  | C (C is ≥50 to <75%) | O=C(OCCc1ccncc1)c1ccc2nc(-c3cc(Cl)cc(Cl)c3)oc2c1 [Compound 110] |
|  | A (A is <25%) | CN(C)[C@H]1C[C@@H](OC(=O)c2ccc3nc(-c4cc(Cl)cc(Cl)c4)oc3c2)C1 [Compound 121] |
|  | A (A is <25%) | CN1CCCC1CCCOC(=O)c1ccc2nc(-c3cc(Cl)cc(Cl)c3)oc2c1 (stereo not shown) [Compound 136] |
|  | A (A is <25%) | CN(CC(F)F)C(=O)c1ccc2nc(-c3cc(Cl)cc(Cl)c3)oc2c1 [Compound 174] |
|  | B (B is ≥25 to <50%) | Cn1ccc(CCCOC(=O)c2ccc3nc(-c4cc(Cl)cc(Cl)c4)oc3c2)n1 [Compound 104] |
|  | B (B is ≥25 to <50%) | CC(Cc1ccncc1)OC(=O)c1ccc2nc(-c3cc(Cl)cc(Cl)c3)oc2c1 (stereo not shown) [Compound 169] |
|  | D (D is ≥75%) | O=C(OCCCc1ncccn1)c1ccc2nc(-c3cc(Cl)cc(Cl)c3)oc2c1 [Compound 148, 3-(pyrimidin-2-yl)propyl 2-(3,5-dichlorophenyl)benzo[d]oxazole-6-carboxylate] |

| Formation of tafamidis at 120 min [1] | Formation of tafamidis at 60 min [2] | SMILES |
| --- | --- | --- |
|  | A (A is <25%) | [2H]C([2H])([2H])N(CCCOC(=O)c1ccc2nc(-c3cc(Cl)cc(Cl)c3)oc2c1)C([2H])([2H])[2H] [Compound 152] |
|  | A (A is <25%) | CN1CCCC1CCOC(=O)c1ccc2nc(-c3cc(Cl)cc(Cl)c3)oc2c1 (stereo not shown) [Compound 122] |
|  | D (D is ≥75%) | O=C(OCc1cccnc1)c1ccc2nc(-c3cc(Cl)cc(Cl)c3)oc2c1 [Compound 107] |
|  | D (D is ≥75%) | Cn1nccc1COC(=O)c1ccc2nc(-c3cc(Cl)cc(Cl)c3)oc2c1 [Compound 127] |
|  | A (A is <25%) | COc1nc(C)c(COC(=O)c2ccc3nc(-c4cc(Cl)cc(Cl)c4)oc3c2)o1 [Compound 114, (2-methoxy-4-methyloxazol-5-yl)methyl 2-(3,5-dichlorophenyl)-benzo [d] oxazole-6-carboxylate] |
|  | C (C is ≥50 to <75%) | Cn1cc(COC(=O)c2ccc3nc(-c4cc(Cl)cc(Cl)c4)oc3c2)cn1 [Compound 128] |
|  | D (D is ≥75%) | O=C(OCCCc1cccnc1)c1ccc2nc(-c3cc(Cl)cc(Cl)c3)oc2c1 [Compound 112] |
|  | D (D is ≥75%) | Cn1cnc(COC(=O)c2ccc3nc(-c4cc(Cl)cc(Cl)c4)oc3c2)c1 [Compound 129] |
|  | D (D is ≥75%) | O=C(OCc1ccccc1)c1ccc2nc(-c3cc(Cl)cc(Cl)c3)oc2c1 [Compound 186] |
|  | D (D is ≥75%) | O=C(OC1CCn2ccnc21)c1ccc2nc(-c3cc(Cl)cc(Cl)c3)oc2c1 (stereo not shown) [Compound 149] |
|  | A (A is <25%) | [2H]C([2H])([2H])N1CCC(OC(=O)c2ccc3nc(-c4cc(Cl)cc(Cl)c4)oc3c2)C1 (stereo not shown) [Compound 140] |
|  | C (C is ≥50 to <75%) | O=C(OCC1CCCN1Cc1ccccc1)c1ccc2nc(-c3cc(Cl)cc(Cl)c3)oc2c1 (stereo not shown) [Compound 165] |
|  | A (A is <25%) | C[N+]1([O-])CCC(OC(=O)c2ccc3nc(-c4cc(Cl)cc(Cl)c4)oc3c2)C1 (stereo not shown) [Compound 141, 3-((2-(3,5-dichlorophenyl)benzo[d]oxazole-6-carbonyl)oxy)-1-methylpyrrolidine 1-oxide] |
|  | C (C is ≥50 to <75%) | O=C(OCCc1ccccc1)c1ccc2nc(-c3cc(Cl)cc(Cl)c3)oc2c1 [Compound 187] |
|  | C (C is ≥50 to <75%) | O=C(OCc1ccnnc1)c1ccc2nc(-c3cc(Cl)cc(Cl)c3)oc2c1 [Compound 135] |
|  | A (A is <25%) | CN1CCC(CCOC(=O)c2ccc3nc(-c4cc(Cl)cc(Cl)c4)oc3c2)C1 (stereo not shown) [Compound 126] |
|  | A (A is <25%) | CN(CCF)C(=O)c1ccc2nc(-c3cc(Cl)cc(Cl)c3)oc2c1 [Compound 173] |
|  | D (D is ≥75%) | O=C(OCCc1cccnc1)c1ccc2nc(-c3cc(Cl)cc(Cl)c3)oc2c1 [Compound 108] |
|  | D (D is ≥75%) | O=C(OCCc1ccccn1)c1ccc2nc(-c3cc(Cl)cc(Cl)c3)oc2c1 [Compound 105] |
|  | A (A is <25%) | CN(C)[C@H]1C[C@H](OC(=O)c2ccc3nc(-c4cc(Cl)cc(Cl)c4)oc3c2)C1 [Compound 125] |
|  | B (B is ≥25 to <50%) | O=C(OC1CCCC1)c1ccc2nc(-c3cc(Cl)cc(Cl)c3)oc2c1 [Compound 184] |
|  | C (C is ≥50 to <75%) | Cn1cncc1COC(=O)c1ccc2nc(-c3cc(Cl)cc(Cl)c3)oc2c1 [Compound 123] |
|  | A (A is <25%) | CN(C)[C@H]1CCC[C@H]1OC(=O)c1ccc2nc(-c3cc(Cl)cc(Cl)c3)oc2c1 [Compound 134] |
|  | B (B is ≥25 to <50%) | CN1CC(OC(=O)c2ccc3nc(-c4cc(Cl)cc(Cl)c4)oc3c2)C1 [Compound 118] |
|  | C (C is ≥50 to <75%) | O=C(OCc1cncnc1)c1ccc2nc(-c3cc(Cl)cc(Cl)c3)oc2c1 [Compound 133] |
|  | B (B is ≥25 to <50%) | O=C(OC1CCCN(Cc2ccccc2)C1)c1ccc2nc(-c3cc(Cl)cc(Cl)c3)oc2c1 (stereo not shown) [Compound 164] |
|  | D (D is ≥75%) | O=C(OCc1ccncn1)c1ccc2nc(-c3cc(Cl)cc(Cl)c3)oc2c1 [Compound 131] |
